Assay results taken from PMC8840040, “Pharmacokinetic Characterization of the DDAH1 Inhibitors ZST316 and ZST152 in Mice Using a HPLC-MS/MS Method” (Molecules, 2022).
“And” between values parts separate entries of the source, which are not always exact repeats. Identical values can stand only once. Like-named read-outs stand apart in the source and are kept apart here.

Legend:
[1] = Plasma pharmacokinetics and urinary elimination after single oral and intravenous administration; type: in vivo, FVB mice; settings: for urinary excretion, range over oral and intravenous route: 24 h urine, p.o. 60 mg/Kg to i.v. 30 mg/Kg; for clearance: read-out: Clp (plasma clearance) (converted); for Vd: read-out: Vd (volume of distribution); for bioavailability: oral, 60 mg/Kg, read-out: F % (bioavailability); for time up to which detectable in plasma: concentration close to the LLOQ (5 ng/mL)
Method: Mice were treated with ZST316 and ZST152 using a dose of 60 mg/Kg (oral gavage) and 30 mg/Kg (intravenous bolus). For pharmacokinetic sampling, blood was collected at 15 and 30 min, and 1, 3, 8, and 24 h post dose. Three mice were analyzed per each time point. After the animals were anesthetized with isoflurane, the blood was drained from the retro-orbital plexus into heparinized tubes, and then centrifuged for 10 min at 4000× g at 4 °C to separate plasma. A 24-h urine fraction was collected in three mice for each drug and route of administration. Plasma and urine samples were stored at −20 °C until analysis by HPLC-MS/MS.
In the preliminary phase of the method set up, we tried different solvents, 2-propanol, methanol (CH3OH), and acetonitrile (CH3CN) at different pH conditions, quickly obtaining a satisfactory recovery with CH3OH: 0.1% formic acid (HCOOH). Briefly, to assay ZST316, 10 µL of IS (ZST152 WS: 500 ng/mL) were added to 100 µL of plasma study samples, standards, or QCs in a polypropylene tube. The sample was then added with 10 µL of ammonium formate (NH4HCO2) 50 mM, mixed by vortex and added with 400 µL CH3OH: 0.1% HCOOH, vortex mixed again for 30 s and centrifuged at 13,200 rpm for 10 min at 4 °C. A volume of 450 µL of the supernatant was transferred to a new polypropylene tube, dried under nitrogen flow, and reconstituted with 100 µL of MP A:B (1:1, v/v). Finally, the mixed samples were centrifuged at 13,200 rpm for 10 min at 4 °C and the supernatant was transferred into glass vials for HPLC-MS/ MS analysis. Plasma samples containing drug concentrations above the highest standard point of the calibration curve were reanalyzed following dilution with the control matrix.
To assay ZST316, 5 µL of IS (ZST152 WS: 100 µg/mL) were added to 50 µL of urine samples, standards, or QCs in a polypropylene tube. After vortex mixing, 490 µL of MP A:B (1:1; v/v) were added to 10 µL of each sample to obtain a final dilution of 1:50. Samples were vortex mixed again for 30 s, centrifuged at 13,200 rpm for 10 min at 4 °C, and, finally, the supernatant was transferred into glass vials for HPLC-MS/ MS analysis. The urine samples with drug concentrations above the highest standard point of the calibration curve were reanalyzed following dilution with control matrix.
[…] chromatography was performed using a series 200 HPLC system (Perkin Elmer, Waltham, MA, USA) under gradient conditions with separation on a HILIC column, 3 µm, 100 A, 2.1 × 150 mm (Waters, Milford, MA, USA), coupled with a 3 µm, 3.9 × 5.0 mm guard column of the same material at the flow rate of 0.2 mL/min. Gradient features: 10% mobile phase (MP) A (NH4HCO2 10 mM, 10% CH3CN, 0.1% HCOOH) and 90% MP B (CH3CN, 0.1% HCOOH) as the initial constant condition; then to 90% MP A in 6 min and the constant condition for 1.5 min. Return to the start condition in 0.5 min and conditioning for 5.5 min. Total run time: 13.5 min. Mass spectrometric detection was performed using an API 4000 triple quadrupole mass spectrometer (SCIEX, Framingham, MA, USA) supplied with a Turbo Ion Spray source set at 350 °C and −4200 V, analyzing biological samples with electrospray ionization (ESI) operating in negative ion mode. Purified air was used as nebulizer gas (Gas 1) and heater gas (Gas 2) and N2 was used as curtain gas and collision activated dissociation gas. They were set to 40, 50, 20, and 4 instrument units (psi), respectively. The declustering potential (DP) was set at −119 V and the collision exit potential (CXP) at –10 V. All parameters of the source were defined by direct infusion of ZST316 and ZST152 1 µg/mL in mobile phase B. The final quantification was carried out in Selected Reaction Monitoring (SRM) with the following transitions: m/z 307.9 → 208.0 (collision energy of −29.5 eV) for ZST316 and m/z 271.9 → 170.9 (collision energy −24.7 eV) for ZST152 (Figure 2 and Figure 3). Data were processed with the software package Analyst 1.6.2 (AB SCIEX). […]

[2] = Tolerability of chronic intraperitoneal treatment (clinical signs, body weight); type: in vivo; settings: i.p. 30 mg/Kg/day for three weeks
Method: In this study, 18 mice received a single dose and were sampled within 24 h, and the other 18 were treated every day for three weeks (qdx21) and sampled on day 21. Mice were monitored daily for clinical signs of toxicity and distress, and body weight was measured at least twice a week. Blood samples were collected after both treatment regimens at 15 and 30 min, and 1, 3, 8, and 24 h post dose. Three mice were analyzed for each time point. After the animals were anesthetized with isoflurane, the blood was drained from the retro-orbital plexus into heparinized tubes, and then centrifuged for 10 min at 4000 g at 4 °C to separate plasma. A 24-h urine fraction was collected in three mice for each drug and route of administration. Plasma and urine samples were stored at −20 °C until analysis by HPLC-MS/MS.

[3] = FVB, mouse, plasma, iv, 30 mg/kg, i.v. 30 mg/Kg, single bolus
[4] = FVB, mouse, plasma, iv, 30 mg/kg, i.v. 30 mg/Kg, read-out: AUC 0-8h
[5] = FVB, mouse, plasma, iv, 30 mg/kg, i.v. 30 mg/Kg, read-out: AUC 0-last
[6] = FVB, mouse, plasma, iv, 30 mg/kg, i.v. 30 mg/Kg, read-out: Half-life (converted)
[7] = FVB, mouse, plasma, iv, i.v. 30 mg/Kg
[8] = FVB, mouse, plasma, p.o. 60 mg/Kg vs i.v. 30 mg/Kg, dose normalized
[9] = FVB, mouse, plasma, po, 60 mg/kg, p.o. 60 mg/Kg, read-out: AUC 0-8h
[10] = FVB, mouse, plasma, po, 60 mg/kg, p.o. 60 mg/Kg, read-out: AUC 0-last
[11] = FVB, mouse, plasma, po, 60 mg/kg, p.o. 60 mg/Kg, read-out: Half-life (converted)
[12] = FVB, mouse, plasma, po, p.o. 60 mg/Kg

Question: What does the source list for `COCCNC(=N)NCCC[C@H](N)c1noc(=O)[nH]1` [ZST152]?
Answer: urinary excretion, range over oral and intravenous route [1]: 12.5%–22.2% and 12.5–22.2%; Cmax [1, 3]: 24900 ng/mL; AUC(0-t) [1, 4]: 9250 ng·h/mL; AUC(0-t) [1, 5]: 9250 ng·h/mL; half-life [1, 6]: 72 min; AUC(0-inf) [1, 7]: 9260 ng·h/mL; Tmax [1, 7]: 5 min; clearance [1, 7]: 54 mL/min/kg; Vd [1, 7]: 5.49 L/kg; bioavailability [1, 8]: 33%; AUC(0-t) [1, 9]: 6170 ng·h/mL; AUC(0-t) [1, 10]: 6170 ng·h/mL; half-life [1, 11]: 51.6 min; AUC(0-inf) [1, 12]: 6180 ng·h/mL; Tmax [1, 12]: 15 min; 24 h urinary excretion (% of dose) ([1]; i.v. 30 mg/Kg): 22.2 % of dose; time up to which detectable in plasma ([1]; i.v. 30 mg/Kg): 8 h; half-life ([1]; i.v. 30 mg/Kg, 30 mg/kg): 70.2 min; 24 h urinary excretion (% of dose) ([1]; p.o. 60 mg/Kg): 12.5 % of dose; time up to which measurable in plasma ([1]; p.o. 60 mg/Kg): 8 h; F % (bioavailability) ([1]; p.o. 60 mg/Kg vs i.v. 30 mg/Kg, dose normalized): 33.3%; urinary excretion relative to that of ZST316 ([1]; regardless of the route of administration): four- to fivefold

Question: For `COCCNC(=N)NCCC[C@H](N)C(=O)NS(C)(=O)=O` [ZST316], which “tolerability of chronic treatment” value [2] is on record?
Answer: well tolerated

Question: What about the “body weight during treatment vs. untreated animals” value ([2]; 30 mg/kg/day) of the same compound?
Answer: no changes in body weight vs. untreated animals

Question: What about the “clinical signs of toxicity or distress” value ([2]; 30 mg/kg/day) of the same compound?
Answer: no clinical signs of toxicity or distress were noticed

Question: And the “urinary excretion, range over oral and intravenous route” value [1]?
Answer: 2.3%–7.5% and 2.3–7.5%

Question: And the Cmax [1, 3]?
Answer: 67400 ng/mL

Question: What about the AUC(0-t) [1, 4] of the same compound?
Answer: 21400 ng·h/mL

Question: What about the AUC(0-t) [1, 5] of the same compound?
Answer: 21500 ng·h/mL

Question: What about the half-life [1, 6] of the same compound?
Answer: 360 min

Question: And the AUC(0-inf) [1, 7]?
Answer: 21600 ng·h/mL

Question: What about the Tmax [1, 7] of the same compound?
Answer: 5 min

Question: What about the clearance [1, 7] of the same compound?
Answer: 23.2 mL/min/kg

Question: What about the Vd [1, 7] of the same compound?
Answer: 12.2 L/kg

Question: And the bioavailability [1, 8]?
Answer: < 5%

Question: What about the Cmax ([1]; FVB, mouse, plasma, po, 60 mg/kg, p.o. 60 mg/Kg, single dose) of the same compound?
Answer: 1020 ng/mL

Question: And the AUC(0-t) [1, 9]?
Answer: 1940 ng·h/mL

Question: What about the AUC(0-t) [1, 10] of the same compound?
Answer: 1940 ng·h/mL

Question: And the half-life [1, 11]?
Answer: 97.8 min

Question: What about the AUC(0-inf) [1, 12] of the same compound?
Answer: 2010 ng·h/mL

Question: What about the Tmax [1, 12] of the same compound?
Answer: 30 min

Question: And the concentration at 8 h ([1]; FVB, mouse, plasma, po, p.o. 60 mg/Kg, 8 h post dose)?
Answer: 29 ng/mL

Question: And the “24 h urinary excretion (% of dose)” value ([1]; i.v. 30 mg/Kg)?
Answer: 7.5 % of dose

Question: What about the “AUC after intravenous administration relative to that of ZST152” value ([1]; i.v. 30 mg/Kg) of the same compound?
Answer: approximately twice

Question: What about the “time up to which detectable in plasma” value ([1]; i.v. 30 mg/Kg) of the same compound?
Answer: 24 h

Question: What about the “24 h urinary excretion (% of dose)” value ([1]; p.o. 60 mg/Kg) of the same compound?
Answer: 2.3 % of dose

Question: And the “time up to which measurable in plasma” value ([1]; p.o. 60 mg/Kg)?
Answer: 8 h
